The values that follow come from paper PMC8282797, “Strictly regulated agonist-dependent activation of AMPA-R is the key characteristic of TAK-653 for robust synaptic responses and cognitive improvement” (Scientific Reports, 2021).

Each structure is given as a SMILES string.

One assay deals with AMPA-R. Nature of the assay: Ca2+ influx assay using rat primary hippocampal neurons. Format: cell-based. Also noted: key to Single effect on Ca2+ level: -: No effect or slight effect; +: Potent; ++: Very potent. To be noted: for Single effect on Ca2+ level: summary grade. Here is the method: Ca^2+ influx assay using primary neurons was performed as previously described. After 5 days of culture, the cells plated on poly-D-lysine coated 96-well plates (Corning Incorporated) at 2 × 10^4 or 5 × 10^4 cells/well were used for experiments with PF-04958242 or TAK-653, respectively. Fluorescent calcium indicator dye solution (Calcium4 assay Kit, Dojindo, Kumamoto, Japan) in Ca^2+ reaction buffer (DMEM, HEPES and BSA) containing Probenecid (Dojindo) was added and incubated for 60 min in 5% CO2 at 37 °C. After washing once, the relative increases in intracellular Ca^2+ levels stimulated by compounds in the presence and absence of AMPA were monitored. Details are described in the Supplementary Information.
Primary cultures of hippocampal neuronal cells were prepared from fetal Sprague-Dawley rats at 19 days of gestation. Rat embryos were decapitated and their whole brains were isolated. Hippocampi were dissected in ice-cold Hanks' Balanced Salt Solutions (HBSS) under a microscope and then dispersed into cells using a neural cell dispersion kit (Sumitomo Bakelite Co., Ltd., Tokyo, Japan). The dissociated cells were suspended in Neurobasal medium containing B27 supplement (Thermo Fisher Scientific Inc.), 2 mM L-glutamine (Lonza, Basel, Switzerland), 100 U/mL penicillin (Lonza), 100 μg/mL streptomycin (Lonza) and 20 μg/mL gentamicin sulfate (Lonza). The cells were plated on poly-D-lysine coated 96-well plates (Corning Incorporated) for Ca^2+ influx assay or on poly-L-lysine coated 96-well plates (Sumitomo Bakelite) for measurement of BDNF protein levels and cultured in a humidified CO2 incubator with 5% CO2 at 37°C.
After 5 days of culture, the cells at 2×10^4 or 5×10^4 cells/well were used for experiments with PF-04958242 or TAK-653, respectively. For TAK-653, after removal of culture medium, 75 µL of fluorescent calcium indicator dye solution (Calcium4 assay Kit, Dojindo, Kumamoto, Japan) in Ca^2+ reaction buffer (DMEM, 10 mM HEPES and 0.1% BSA) containing 1.25 mM Probenecid (Dojindo) was added and incubated for 60 min in 5% CO2 at 37°C and washed once using 75 µL of fluorescent calcium indicator dye solution. After addition of 75 µL of fluorescent calcium indicator dye solution to each well again, the relative increases in intracellular Ca^2+ levels by compounds in the presence and absence of 5 μM AMPA were monitored for 8.5 min by fluorometric imaging plate reader. Activity of the compound was defined as fluorescence intensity integrated over the entire period of measurement. Intensity of 0% was defined as activity in the presence of only DMSO, while 100% was defined as activity in the presence of 5 μM AMPA and 10 μM HBT1. For PF-04958242, after removal of culture medium, 90 µL of fluorescent calcium indicator dye solution (Calcium4 assay Kit, Dojindo) in Ca^2+ reaction buffer (DMEM, 20 mM HEPES and 0.1% BSA) containing 2.5 mM Probenecid (Dojindo) was added and incubated for 60 min in 5% CO2 at 37°C. After addition of 90 µL of fluorescent calcium indicator dye solution to each well again, the relative increases in intracellular Ca^2+ levels by compounds in the presence and absence of 1 μM AMPA were monitored for 2 min in a microplate reader (CellLux, PerkinElmer, Waltham, MA, USA). Activity of the compound was defined as fluorescence intensity integrated over the entire period of measurement. 100% was defined as activity in the presence of 1 μM AMPA and 10 μM HBT1, while intensity of 0% was defined as activity in the presence of 1 μM AMPA or only DMSO for potentiator effect or agonistic effect, respectively. EC50 values were calculated by logistic regression analysis.

The subject of a further assay is naïve rats. Nature of the assay: Novel object recognition (NOR) test. Format: in vivo, rat. To be noted: for NORT (effective doses): summary. The protocol: NOR tests were performed using male Long-Evans rats at 6 weeks old as previously described, with some modifications. On day 1, rats were allowed to habituate to the empty test box (a gray-colored polyvinyl chloride box (40 × 40 × 50 cm)) for 10 min individually. Testing comprised two 3-min trials called the acquisition trial and the retention trial that were separated by 48 h inter-trial intervals (ITIs). On day 2, in the acquisition trial, rats were allowed to explore two identical objects (A1 and A2) for 3 min. On day 4, in the retention trial, rats were again allowed to explore a familiar object (A3) and a novel object (B) for 3 min. The object exploration was defined as rats' licking, sniffing or touching the object with forelimbs while sniffing. TAK-653 or AMPA was orally or intraperitoneally, respectively, 2 h or 0.5 h prior to the acquisition and the retention trials. The NDI was calculated using the following equation: novel object interaction/total interaction × 100 (%).

In the case of `Cc1onc(O)c1CC(N)C(=O)O` (stereo not drawn) [AMPA, alpha-amino-3-hydroxy-5-methyl-4-isoxazole-propionic acid], the “Intracellular Ca2+ levels” value with AMPA-R (single application) is listed as “dose-dependently increased”. The “Single effect on Ca2+ level” value in the assay with AMPA-R was “+”. Moreover, in the assay with naïve rats (0.3 to 3 mg/kg, i.p.), the “Cognitive performance in the NOR test” value is listed as “did not improve”. The “NORT (effective doses)” value in the assay with naïve rats is reported as “No effect”.
Regarding `CC1=CN2CCS(=O)(=O)N=C2C(c2ccc(OC3CCCCC3)cc2)=N1` [TAK-653, 9-[4-(Cyclohexyloxy)phenyl]-7-methyl-3,4-dihydropyrazino[2,1-c][1,2,4]thiadiazine 2,2-dioxide], the “Intracellular Ca2+ level, Agonistic effect @30 μM” value in the assay on AMPA-R (absence of AMPA, % of 5 μM AMPA + 10 μM HBT1 response) is reported as 4.8%. Also, the EC50 in the assay with AMPA-R (in the presence of 5 μM AMPA, read-out: Intracellular Ca2+ level, Potentiation EC50) was determined as 930 nM. The “Single effect on Ca2+ level” value in the assay with AMPA-R is “─”. Further, in the assay on naïve rats (0.03, 0.1 and 0.3 mg/kg, p.o., 2 h prior to trials), the “Novelty discrimination index (NDI)” value is on record as “significantly improved”. Also, in the assay with naïve rats (p.o., rats), the “Dose improving visual learning and memory in NOR test” value was at least 0.03 mg/kg. Besides, in the assay with naïve rats, the “NORT (effective doses)” value was “Effective (0.03, 0.1, 0.3)”.

The EC50 is the concentration needed to bring the measured effect to its halfway point.
